Measurements as given in ChEMBL document CHEMBL1177693, “Antimalarials from nature” (Bioorg Med Chem, 2009).
Values after ≈ are worked out from the molar mass of the structure shown.

System: Plasmodium falciparum
Assay: Antimalarial activity against chloroquine-resistant Plasmodium falciparum Dd2
Format: functional, organism-based
Conditions: not given

Structure (SMILES) | IC50 [µg/mL]
C=C1C(=O)O[C@H]2[C@H]1[C@@H](OC(C)=O)CC(=C)[C@]1(O)CC=C(C)[C@H]21 | 10.8 (≈ 35.5 µM)
COc1ccc(-c2cc(=O)oc3c(OC)c(OC)cc(OC)c23)cc1 | 3.6 (≈ 10.5 µM)
COc1ccc(-c2cc(=O)c3c(O)cc(O)cc3o2)cc1 [ACACETIN] | 12.6 (≈ 44.3 µM)
O=c1c(-c2ccc(O)cc2)coc2cc(O)cc(O)c12 [GENISTEIN] | 4.1 (≈ 15.2 µM)
COc1ccc(-c2coc3cc(O)ccc3c2=O)cc1O [CALYCOSIN] | 9.8 (≈ 34.5 µM)

Biological target: T1, Enoyl-acyl-carrier protein reductase (Plasmodium falciparum) (UniProt Q965D5)
T1 sequence (whole entry): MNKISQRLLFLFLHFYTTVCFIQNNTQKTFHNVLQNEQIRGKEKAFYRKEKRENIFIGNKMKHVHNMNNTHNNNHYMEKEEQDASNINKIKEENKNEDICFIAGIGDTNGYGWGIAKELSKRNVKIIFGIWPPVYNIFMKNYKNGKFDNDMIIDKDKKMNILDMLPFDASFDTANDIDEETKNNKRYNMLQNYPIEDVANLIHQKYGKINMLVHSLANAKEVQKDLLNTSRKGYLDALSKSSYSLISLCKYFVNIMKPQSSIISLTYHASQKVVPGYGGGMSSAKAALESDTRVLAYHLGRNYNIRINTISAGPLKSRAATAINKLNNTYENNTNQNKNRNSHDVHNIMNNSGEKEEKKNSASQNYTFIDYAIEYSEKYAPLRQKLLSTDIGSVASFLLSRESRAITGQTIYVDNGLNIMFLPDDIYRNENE
Assay: (§1) Inhibition of Plasmodium falciparum Fabl
Conditions: not given

fold change (FC) | Structure (SMILES)
5 | C=C1C(=O)OC[C@H]1[C@H](O)/C=C(\C)CC(=O)C=C(C)C

Biological target: T2, Enoyl-acyl-carrier protein reductase (Plasmodium falciparum, UniProt Q965D5)
T2 sequence (Q965D5 whole entry): T1 sequence (whole entry)
Assay: as §1
Conditions: not given

Structure (SMILES) | IC50 [µM]
O=c1cc(-c2ccc(O)c(O)c2)oc2cc(O[C@@H]3O[C@H](CO)[C@@H](O)[C@H](O)[C@H]3O)cc(O)c12 [GALUTEOLIN] | 22.3
OCC1=C[C@@H]2OCC[C@@H]2[C@@H]1CO | 588

System: Plasmodium falciparum
Assay: Inhibition of Plasmodium falciparum FabG
Conditions: concentration not given here

inhibition [%] | Structure (SMILES)
25 | C=C1C(=O)OC[C@H]1[C@H](O)/C=C(\C)CC(=O)C=C(C)C

System: Plasmodium falciparum
Assay: Antimalarial activity against Plasmodium falciparum D6
Format: functional, organism-based
Conditions: not given

IC50 [µg/mL] | Structure (SMILES)
3.5 (≈ 9.5 µM) | COc1cc(/C=C/C(=O)CC(=O)/C=C/c2ccc(O)c(OC)c2)ccc1O [CURCUMIN]

System: Plasmodium falciparum
Assay: Antimalarial activity against Plasmodium falciparum NF54
Format: functional, organism-based
Conditions: not given

IC50 | Structure (SMILES)
0.0017 µg/mL | COc1c2c(c(O)c3c4c(c(C)cc13)[C@@H]1O[C@@]3(C(OC)OC)O[C@@H]1[C@@](O[C@H]1C[C@@H](O)[C@@](O)(C(C)=O)[C@H](C)O1)(O4)[C@@]31CO1)C(=O)[C@@H](O)C[C@@H]2O[C@H]1C[C@@](C)(O)[C@H](O)[C@H](C)O1 [TRIOXACARCIN D]
3.32 µM | C[C@@H]1O[C@@H](Oc2cc3oc(-c4ccc(O)c(O)c4)cc(=O)c3c(O)c2O)[C@H](O)[C@H](O)[C@H]1O
0.0017 µg/mL | COc1c2c(c(O)c3c4c(c(C)cc13)[C@@H]1O[C@@]3(C(OC)OC)O[C@@H]1[C@@](O[C@H]1C[C@@H](O)[C@@](O)(C(C)=O)[C@H](C)O1)(O4)[C@@]31CO1)C(=O)[C@@H](O)C[C@@H]2O[C@H]1C[C@@](C)(O)[C@H](OC(C)=O)[C@H](C)O1 [TRIOXACARCIN A]

System: Plasmodium falciparum
Assay: Antimalarial activity against chloroquine-sensitive Plasmodium falciparum PoW
Format: functional, organism-based
Conditions: not given

Structure (SMILES) | IC50 [µg/mL]
COc1ccc(-c2cc(=O)c3c(O)cc(O)cc3o2)cc1 [ACACETIN] | 5.5 (≈ 19.3 µM)
O=c1c(-c2ccc(O)cc2)coc2cc(O)cc(O)c12 [GENISTEIN] | 2 (≈ 7.4 µM)
COc1ccc(-c2coc3cc(O)ccc3c2=O)cc1O [CALYCOSIN] | 4.2 (≈ 14.8 µM)

System: Plasmodium vivax
Assay: Antimalarial activity against Plasmodium vivax infected in human HepG2-A16 cells assessed as reduction of trophozoites level
Format: functional
Set-up: scale not given: the % may be the effect or the level left
Conditions: not given

Structure (SMILES) | Activity [%]
CC(CO)CCC(=O)[C@@H](C)[C@H]1[C@H](O)C[C@H]2[C@@H]3CCC4=CC(=O)CC[C@]4(C)[C@H]3CC[C@]12C (some centres not stated) | 47
CC(CCC1(O)C[C@@H]2C[C@H]3[C@@H]4CCC5=CC(=O)CC[C@]5(C)[C@H]4CC[C@]3(C)[C@H]2[C@@H]1C)CO[C@@H]1O[C@H](CO)[C@@H](O)[C@H](O)[C@H]1O (some centres not stated) | 39

System: Plasmodium falciparum
Assay: Antimalarial activity against chloroquine-resistant Plasmodium falciparum FCB1
Format: functional, organism-based
Conditions: FcB1/Columbia

Structure (SMILES) | IC50 [µM]
O=C(Oc1cc(O)cc2c1C[C@H](O)[C@@H](c1ccc(O)c(O)c1)O2)c1cc(O)c(O)c(O)c1 | 1.2
O=C(O[C@H]1Cc2c(O)cc(O)cc2O[C@@H]1c1ccc(O)c(O)c1)c1cc(O)c(O)c(O)c1 [CATECHIN GALLATE] | 1

System: Plasmodium falciparum
Assay: Antimalarial activity against chloroquine-sensitive Plasmodium falciparum D6
Format: functional, organism-based
Conditions: not given

Structure (SMILES) | IC50 [µM]
COc1ccc(C[C@H]2NC[C@H](O)[C@H]2OC(C)=O)cc1 [ANISOMYCIN] | 4.6
O=C(O)[C@@H]1[C@H](C(=O)O)[C@H]2CC[C@@H]1O2 [ENDOTHALL] | 7.8
C/C=C/C/C=C/CCC(=O)[C@H]1O[C@H]1C(N)=O [CERULENIN] | 10.1

System: Plasmodium berghei
Assay: Antiplasmodial activity against chloroquine-sensitive Plasmodium berghei
Format: functional, organism-based
Conditions: not given

IC50 [µM] | Structure (SMILES) | ED50 [mg/kg]
0.0021 | COC(C)(C)[C@@H]1C=C2C(=O)[C@H]3O[C@H]3C3C=CC(C2C(=O)/C1=C/CO)[C@H]3O (some centres not stated) | 5.2

System: Plasmodium falciparum
Assay: Antimalarial activity against Plasmodium falciparum
Format: functional, organism-based
Conditions: Plasmodium falciparum

EC50 [µg/mL] | IC50 | Structure (SMILES)
2 (≈ 6.13 µM) |  | Cc1c(O)cc2c3c1OC(C)(C)CC3c1ccc(O)c(O)c1CC2 (stereo not drawn) [DEMETHYLRACEMOSOL]
 | 0.2 µg/mL | C[C@@]12C=CC(=O)[C@@]3(C)[C@H]1[C@@H](OC2)[C@@H](OC(=O)c1ccccc1)[C@@]1(C)C2=CC[C@@H](C4=CC(O)OC4=O)[C@]2(C)C[C@@H]2O[C@]231 (mixture of isomers) [TRICHIRUBINE B]
 | 17 µM | COc1c(O)cc2oc3cc(O)c(CC=C(C)C)c(O)c3c(=O)c2c1CC=C(C)C [MANGOSTIN]
 | 14 µM | CCCCCCCCCCCCCC1CC(=O)NCCCNCCCCNCCCN1 (configuration not stated) [BUDMUNCHIAMINE L4]
 | 2.4 µM | Cc1cc(O)c2c(c1)[C@H]([C@H]1O[C@H](OC(=O)c3ccccc3)[C@@H](O)[C@@H](O)[C@@H]1O)c1cccc(O)c1C2=O [UVEOSIDE]
 | 42.9 µM | COc1ccc2c(OC)c3c(C)cc(=O)[nH]c3c(OC)c2c1OC

Structure (SMILES) | EC50 [µg/mL] | IC50
NC[C@H](Cl)[C@@H](O)c1c[nH]c(N)n1 [GIRACODAZOLE] |  | 0.077 µM
C[C@@H]1CC[C@H]2C(C)(C)[C@H](O)CC[C@]2(C)[C@@]12Cc1c(O)cc3c(c1O2)COC3=O |  | 0.15 µg/mL

System: Plasmodium falciparum
Assay: Antimalarial activity against Plasmodium falciparum K1
Format: functional, organism-based
Conditions: not given

IC50 | Structure (SMILES)
0.0015 µg/mL | COc1c2c(c(O)c3c4c(c(C)cc13)[C@@H]1O[C@@]3(C(OC)OC)O[C@@H]1[C@@](O[C@H]1C[C@@H](O)[C@@](O)(C(C)=O)[C@H](C)O1)(O4)[C@@]31CO1)C(=O)[C@@H](O)C[C@@H]2O[C@H]1C[C@@](C)(O)[C@H](O)[C@H](C)O1 [TRIOXACARCIN D]
2.13 µM | C[C@@H]1O[C@@H](Oc2cc3oc(-c4ccc(O)c(O)c4)cc(=O)c3c(O)c2O)[C@H](O)[C@H](O)[C@H]1O
0.0015 µg/mL | COc1c2c(c(O)c3c4c(c(C)cc13)[C@@H]1O[C@@]3(C(OC)OC)O[C@@H]1[C@@](O[C@H]1C[C@@H](O)[C@@](O)(C(C)=O)[C@H](C)O1)(O4)[C@@]31CO1)C(=O)[C@@H](O)C[C@@H]2O[C@H]1C[C@@](C)(O)[C@H](OC(C)=O)[C@H](C)O1 [TRIOXACARCIN A]

System: Plasmodium falciparum
Assay: Antimalarial activity against Plasmodium falciparum W2
Format: functional, organism-based
Conditions: not given

IC50 [µg/mL] | Structure (SMILES)
4.2 (≈ 11.4 µM) | COc1cc(/C=C/C(=O)CC(=O)/C=C/c2ccc(O)c(OC)c2)ccc1O [CURCUMIN]
